# pIC50: −log10 of the molar value. Activity calls are given as the source filed them. No cut-off for these calls is given here.
# Experiments:
# [1] = Drug distribution in SCID mouse spleen at 0.3 mg/kg, po measured at 6 hrs by LC-MS/MS analysis; assay type: ADME, organism-based; conditions: read-out: Ct
# [2] = molecular target: Voltage-gated inwardly rectifying potassium channel KCNH2 (Homo sapiens, UniProt Q12809); assay: Inhibition of hERG expressed in HEK293 cells; assay type: toxicity, cell-based
# [3] = Drug distribution in Sprague-Dawley rat spleen at 10 mg/kg, po measured at 6 hrs by LC-MS/MS analysis; assay type: ADME, organism-based; conditions: read-out: Ct
# [4] = Drug distribution in SCID mouse liver at 1 mg/kg, po measured at 1 hr by LC-MS/MS analysis; assay type: ADME, organism-based; conditions: read-out: Ct
# Cytochrome P450 2C9 = Cytochrome P450 2C9 (Homo sapiens, UniProt P11712); assay: Inhibition of CYP2C9 (unknown origin) preincubated with compound for 5 mins followed by NADPH addition and measured after 10 mins by LC-MS/MS analysis; assay type: ADME
# [5] = AUC in Sprague-Dawley rat at 3 mg/kg, po measured upto 24 hrs by LC/MS-MS analysis; assay type: ADME, organism-based; conditions: in vivo
# [6] = Drug distribution in SCID mouse spleen at 3 mg/kg, po measured at 24 hrs by LC-MS/MS analysis; assay type: ADME, organism-based; conditions: read-out: Ct
# CWR22R [7] = assay: Antitumor activity against human 22Rv1 cells xenografted in SCID mouse assessed as reduction in BRD2 level in tumor at 1 to 3 mg/kg, po measured at 6 to 24 hrs by Western blotting analysis; assay type: functional, organism-based; conditions: dose 1-3 mg/kg, time 6-24 hrs
# [8] = Oral bioavailability in Sprague-Dawley rat at 3 mg/kg measured upto 24 hrs by LC/MS-MS analysis; assay type: ADME, organism-based; conditions: in vivo
# [9] = Drug distribution in SCID mouse tumor at 3 mg/kg, po measured at 6 hrs by LC-MS/MS analysis; assay type: ADME, organism-based, Neoplasm; conditions: read-out: Ct
# CWR22R [10] = assay: Antitumor activity against human 22Rv1 cells xenografted in SCID mouse assessed as reduction in BRD3 level in tumor at 1 to 3 mg/kg, po measured at 6 to 24 hrs by Western blotting analysis; assay type: functional, organism-based; conditions: dose 1-3 mg/kg, time 6-24 hrs
# CWR22R [11] = assay: Antiproliferative activity against human 22Rv1 cells assessed as cell growth inhibition incubated for 4 days by celtiter-glo luminescent assay; conditions: 22Rv1, 96 h
# CWR22R [12] = assay: Antitumor activity against human 22Rv1 cells xenografted in SCID mouse assessed as tumor growth inhibition at 0.3 mg/kg, po administered 5 times a week for 3 weeks; assay type: functional; conditions: 22Rv1, 504 h, read-out: TGI
# [13] = Drug distribution in Sprague-Dawley rat spleen at 3 mg/kg, po measured at 1 hr by LC-MS/MS analysis; assay type: ADME, organism-based; conditions: read-out: Ct
# VCaP = assay: Antitumor activity against human VCaP cells xenografted in SCID mouse assessed as tumor growth inhibition at 1 mg/kg, po administered twice a week for 4 week; assay type: functional; conditions: 672 h, time 4 weeks, read-out: TGI
# [14] = Drug distribution in SCID mouse tumor at 1 mg/kg, po measured at 6 hrs by LC-MS/MS analysis; assay type: ADME, organism-based, Neoplasm; conditions: read-out: Ct
# [15] = Half life in ICR mouse at 1 mg/kg, iv measured upto 24 hrs by LC/MS-MS analysis; assay type: ADME, organism-based; conditions: in vivo
# [16] = Toxicity in immune-competent Sprague-Dawley rat assessed as change in total protein level at 1 to 10 mg/kg, po administered twice a week for 5 weeks; assay type: organism-based; conditions: in vivo, 840 h, dose 1-10 mg/kg
# [17] = Drug distribution in SCID mouse liver at 3 mg/kg, po measured at 24 hrs by LC-MS/MS analysis; assay type: ADME, organism-based; conditions: read-out: Ct
# [18] = Metabolic stability in dog liver microsome assessed as half life measured upto 60 mins in presence of NADPH by LC-MS/MS analysis; assay type: ADME, Canis lupus familiaris; conditions: liver microsomes
# [19] = Drug distribution in Sprague-Dawley rat liver at 3 mg/kg, po measured at 1 hr by LC-MS/MS analysis; assay type: ADME, organism-based; conditions: read-out: Ct
# [20] = Drug distribution in SCID mouse tumor at 0.3 mg/kg, po measured at 6 hrs by LC-MS/MS analysis; assay type: ADME, organism-based, Neoplasm; conditions: read-out: Ct
# [21] = Half life in Sprague-Dawley rat at 3 mg/kg, po measured upto 24 hrs by LC/MS-MS analysis; assay type: ADME, organism-based; conditions: in vivo
# [22] = Toxicity in immune-competent Sprague-Dawley rat assessed as change in lymphocyte at 1 to 10 mg/kg, po administered twice a week for 5 weeks; assay type: organism-based; conditions: in vivo, 840 h, dose 1-10 mg/kg
# [23] = Drug distribution in SCID mouse spleen at 1 mg/kg, po measured at 24 hrs by LC-MS/MS analysis; assay type: ADME, organism-based; conditions: read-out: Ct
# Cytochrome P450 1A2 = molecular target: T1, Cytochrome P450 1A2 (Homo sapiens, UniProt P05177); assay: Inhibition of CYP1A2 (unknown origin) preincubated with compound for 5 mins followed by NADPH addition and measured after 5 mins by LC-MS/MS analysis; assay type: ADME
# T1 sequence (P05177 whole entry): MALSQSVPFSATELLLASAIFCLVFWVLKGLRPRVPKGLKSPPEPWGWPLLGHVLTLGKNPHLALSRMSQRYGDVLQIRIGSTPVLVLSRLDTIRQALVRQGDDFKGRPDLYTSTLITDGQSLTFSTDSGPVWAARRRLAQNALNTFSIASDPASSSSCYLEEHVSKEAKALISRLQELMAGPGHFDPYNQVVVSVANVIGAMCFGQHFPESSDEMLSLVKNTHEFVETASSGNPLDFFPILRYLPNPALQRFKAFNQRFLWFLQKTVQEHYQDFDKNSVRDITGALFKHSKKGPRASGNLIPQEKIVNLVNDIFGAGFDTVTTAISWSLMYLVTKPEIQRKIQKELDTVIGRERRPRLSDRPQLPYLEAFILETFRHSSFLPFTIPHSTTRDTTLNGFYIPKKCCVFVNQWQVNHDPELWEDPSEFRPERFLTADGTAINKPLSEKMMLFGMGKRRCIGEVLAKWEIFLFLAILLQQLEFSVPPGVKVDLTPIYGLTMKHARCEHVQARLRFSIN
# CWR22R [24] = assay: Antitumor activity against human 22Rv1 cells xenografted in SCID mouse assessed as tumor growth inhibition at 1 mg/kg, po administered 3 times a week for 3 weeks; assay type: functional; conditions: 22Rv1, 504 h, read-out: TGI
# [25] = Drug distribution in Sprague-Dawley rat heart at 10 mg/kg, po measured at 6 hrs by LC-MS/MS analysis; assay type: ADME, organism-based; conditions: read-out: Ct
# [26] = Drug distribution in SCID mouse plasma at 1 mg/kg, po measured at 6 hrs by LC-MS/MS analysis; assay type: ADME, organism-based
# [27] = Drug distribution in SCID mouse plasma at 1 mg/kg, po measured at 1 hr by LC-MS/MS analysis; assay type: ADME, organism-based
# [28] = Drug distribution in Sprague-Dawley rat liver at 3 mg/kg, po measured at 24 hrs by LC-MS/MS analysis; assay type: ADME, organism-based; conditions: read-out: Ct
# LNCaP = assay: Antiproliferative activity against human LNCaP cells assessed as cell growth inhibition incubated for 4 days by celtiter-glo luminescent assay; conditions: 96 h
# [29] = Drug distribution in Sprague-Dawley rat heart at 3 mg/kg, po measured at 6 hrs by LC-MS/MS analysis; assay type: ADME, organism-based; conditions: read-out: Ct
# [30] = Toxicity in SCID mouse xenografted with human VCaP cells assessed as loss of body weight at 1 to 3 mg/kg, po measured up to 48 days; assay type: organism-based; conditions: in vivo, 1152 h, dose 1-3 mg/kg, time < 48 day
# Chain of Cytochrome P450 2C9 (P11712 whole entry): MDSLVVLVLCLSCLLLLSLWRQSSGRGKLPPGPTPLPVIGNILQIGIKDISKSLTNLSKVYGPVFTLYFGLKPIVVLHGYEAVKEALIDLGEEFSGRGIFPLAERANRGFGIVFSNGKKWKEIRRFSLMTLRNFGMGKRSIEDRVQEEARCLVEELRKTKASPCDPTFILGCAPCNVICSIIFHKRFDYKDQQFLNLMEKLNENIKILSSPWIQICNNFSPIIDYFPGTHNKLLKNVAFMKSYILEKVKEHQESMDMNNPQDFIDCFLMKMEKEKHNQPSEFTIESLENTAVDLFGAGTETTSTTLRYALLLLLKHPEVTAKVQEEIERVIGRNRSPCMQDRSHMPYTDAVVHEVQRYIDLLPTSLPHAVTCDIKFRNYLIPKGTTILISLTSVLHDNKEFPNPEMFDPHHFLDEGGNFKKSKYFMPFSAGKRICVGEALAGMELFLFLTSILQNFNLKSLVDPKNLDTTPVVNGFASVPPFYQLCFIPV
# Chain of Voltage-gated inwardly rectifying potassium channel KCNH2 (Q12809 whole entry): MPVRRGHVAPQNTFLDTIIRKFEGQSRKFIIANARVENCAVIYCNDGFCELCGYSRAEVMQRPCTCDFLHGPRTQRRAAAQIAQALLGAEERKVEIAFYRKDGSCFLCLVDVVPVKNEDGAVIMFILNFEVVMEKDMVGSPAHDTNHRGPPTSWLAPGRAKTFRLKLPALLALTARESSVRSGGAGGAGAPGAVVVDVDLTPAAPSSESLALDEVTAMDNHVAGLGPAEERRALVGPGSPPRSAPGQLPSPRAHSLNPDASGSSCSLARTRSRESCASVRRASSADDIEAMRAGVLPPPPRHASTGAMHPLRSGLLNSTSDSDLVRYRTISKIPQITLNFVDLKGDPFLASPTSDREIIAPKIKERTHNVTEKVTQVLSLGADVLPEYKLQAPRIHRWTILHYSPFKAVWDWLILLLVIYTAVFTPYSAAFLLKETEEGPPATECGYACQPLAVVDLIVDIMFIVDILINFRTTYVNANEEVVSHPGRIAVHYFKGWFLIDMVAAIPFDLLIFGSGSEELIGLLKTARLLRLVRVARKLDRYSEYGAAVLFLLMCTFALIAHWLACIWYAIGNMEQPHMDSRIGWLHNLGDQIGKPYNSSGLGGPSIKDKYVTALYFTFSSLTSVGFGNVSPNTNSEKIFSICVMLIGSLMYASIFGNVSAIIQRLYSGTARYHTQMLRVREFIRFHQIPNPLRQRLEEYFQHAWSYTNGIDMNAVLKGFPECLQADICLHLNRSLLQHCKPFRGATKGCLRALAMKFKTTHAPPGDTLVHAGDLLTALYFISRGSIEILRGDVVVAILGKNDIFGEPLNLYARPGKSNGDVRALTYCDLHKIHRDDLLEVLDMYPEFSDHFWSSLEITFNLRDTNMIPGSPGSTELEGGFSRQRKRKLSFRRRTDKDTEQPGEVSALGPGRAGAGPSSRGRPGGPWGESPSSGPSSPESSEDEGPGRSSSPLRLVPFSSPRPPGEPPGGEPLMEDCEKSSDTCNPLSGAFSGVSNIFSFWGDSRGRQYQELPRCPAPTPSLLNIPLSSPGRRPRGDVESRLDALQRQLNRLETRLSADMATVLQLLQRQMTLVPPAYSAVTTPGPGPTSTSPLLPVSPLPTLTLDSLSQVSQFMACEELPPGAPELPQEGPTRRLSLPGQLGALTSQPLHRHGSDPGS
smiles,measurement,setting,value
CC(=O)N1CCc2c(c(N3CCCc4cc(-c5cnn(C)c5)c(C(F)F)cc43)nn2[C@H]2CC[C@H](CN3Cc4cc5c(cc4C3)C(=O)N(C3CCC(=O)NC3=O)C5=O)CC2)C1 (some centres undefined),concentration at 6 h,[1],27.4 ng/mL
same,pIC50,[2],< 4.52
same,concentration at 6 h,[3],406 ng/g
same,concentration at 1 h,[4],1640 ng/mL
same,pIC50,Cytochrome P450 2C9,< 5.00
same,AUC at 24 h,[5],937 ng·h/mL
same,concentration at 24 h,[6],21.2 ng/mL
same,Activity,CWR22R [7],Active
same,bioavailability,[8],67%
same,concentration at 6 h,[9],294 ng/g
same,Activity,CWR22R [10],Active
same,pIC50,CWR22R [11],8.43
same,inhibition in vivo at 0.3 mg/kg,CWR22R [12],56%
same,concentration at 1 h,[13],832 ng/g
same,inhibition in vivo at 1 mg/kg,VCaP,81%
same,concentration at 6 h,[14],64.3 ng/g
same,t1/2,[15],3.4 h
same,Activity,[16],Non-Toxic
same,concentration at 24 h,[17],61.1 ng/mL
same,half-life,[18],0.817 h
same,concentration at 1 h,[19],978 ng/g
same,concentration at 6 h,[20],14.4 ng/g
same,half-life,[21],1.3 h
same,Activity,[22],Non-Toxic
same,concentration at 24 h,[23],2.8 ng/mL
same,pIC50,Cytochrome P450 1A2,< 5.00
same,inhibition in vivo at 1 mg/kg,CWR22R [24],54%
same,concentration at 6 h,[25],83 ng/g
same,concentration at 6 h,[26],43.2 ng/mL
same,concentration at 1 h,[27],212 ng/mL
same,concentration at 24 h,[28],8.4 ng/g
same,pIC50,LNCaP,7.99
same,concentration at 6 h,[29],26.4 ng/g
same,Activity,[30],< 7%

# — ChEMBL document CHEMBL5543112, “Discovery of CBPD-268 as an Exceptionally Potent and Orally Efficacious CBP/p300 PROTAC Degrader Capable of Achieving Tumor Regression” (J Med Chem, 2024)
